Common to all, as to test: ≥ marks a high value that may be exact or a test limit, other limits are often not marked, values filed in µg/mL are converted to µM
Assay [1] has as its system Candida albicans ATCC 2002.
For assay [2], the system named is Escherichia coli ATCC 25922.
Assay [3] has as its system Pseudomonas aeruginosa CMCCB 10104.
The test system of assay [4] is Staphylococcus aureus ATCC 25923.
Assay [5] concerns Bacillus subtilis KCTC 3068.

Values after ≈ are worked out from the molar mass of the structure shown. Values joined by “and” are separate entries in the source; they are usually repeats but may differ in a detail not shown here. Identical values can stand only once.

As usually defined, the MIC is the lowest concentration found to suppress growth.

As for `CC[C@H](C)[C@H](NC(=O)[C@H](CC(C)C)NC(=O)[C@H](CC(C)C)NC(=O)[C@H](CC(=O)O)NC(=O)[C@H](CCCCN)NC(=O)[C@@H](NC(=O)[C@@H](NC(=O)CNC(=O)[C@H](CC(C)C)NC(=O)[C@@H](NC(=O)CN)C(C)C)[C@@H](C)O)C(C)C)C(=O)NCC(=O)N[C@@H](C)C(=O)NCC(=O)N[C@@H](CCCCN)C(=O)N[C@@H](CO)C(=O)N[C@@H](C)C(=O)N[C@@H](C)C(=O)N[C@@H](CCC(N)=O)C(=O)N[C@@H](CO)C(=O)N[C@H](C(=O)N[C@@H](CC(C)C)C(=O)N[C@@H](CCCCN)C(=O)N[C@H](C(=O)N[C@@H](CC(C)C)C(=O)N[C@@H](CO)C(=O)N[C@H]1CSSC[C@@H](C(=O)O)NC(=O)[C@H](CC(=O)O)NC(=O)[C@H](CC(N)=O)NC(=O)[C@H](CO)NC(=O)[C@H]([C@@H](C)CC)NC(=O)[C@H](CCCCN)NC1=O)[C@@H](C)O)[C@@H](C)O` [GVLGTVKDLLIGAGKSAAQSTLKTLSCKISNDC], the MIC in assay [1] was found to be 1.76 µM (≈ 5.8 µg/mL); in assay [2], 1.76 µM (≈ 5.8 µg/mL); in assay [3], 7.05 µM (≈ 23.2 µg/mL); in assay [4], 3.52 µM (≈ 11.6 µg/mL).

For the compound `CC[C@H](C)[C@H](NC(=O)[C@H](CCCCN)NC(=O)[C@H](CCCCN)NC(=O)CNC(=O)[C@H](CCSC)NC(=O)[C@H](CO)NC(=O)[C@@H](NC(=O)[C@@H](NC(=O)[C@H](CC(N)=O)NC(=O)CNC(=O)[C@H](CC(C)C)NC(=O)[C@H](Cc1ccccc1)NC(=O)[C@@H](N)C(C)C)[C@@H](C)CC)C(C)C)C(=O)O` [VFLGNIVSMGKKI], the MIC in assay [1] was not below 142 µM; in assay [2], more than 142 µM; in assay [3], not below 142 µM; in assay [4], more than 142 µM.

Take `CC[C@H](C)[C@@H]1NC(=O)[C@H](CCCCN)NC(=O)[C@@H](NC(=O)[C@H](CCCCN)NC(=O)[C@H](CC(C)C)NC(=O)[C@H](CC(N)=O)NC(=O)[C@H](CC(=O)O)NC(=O)[C@H](CC(C)C)NC(=O)[C@H](CC(C)C)NC(=O)[C@@H](NC(=O)[C@@H](NC(=O)[C@H](CC(=O)O)NC(=O)[C@H](CCSC)NC(=O)[C@H](CC(N)=O)NC(=O)[C@H](CCCCN)NC(=O)[C@H](C)NC(=O)[C@@H](NC(=O)[C@H](CC(N)=O)NC(=O)[C@H](CCCCN)NC(=O)[C@H](C)NC(=O)[C@@H](NC(=O)[C@H](C)NC(=O)[C@H](CCSC)NC(=O)[C@H](Cc2ccccc2)NC(=O)CN)[C@@H](C)O)C(C)C)C(C)C)[C@@H](C)O)CSSC[C@@H](C(=O)O)NC(=O)[C@H](C)NC(=O)[C@H](CCCCN)NC(=O)[C@H]([C@@H](C)O)NC1=O` [GFMATAKNVAKNMDVTLLDNLKCKITKAC]: the MIC in assay [1] came out at 1.3 µM (≈ 4.1 µg/mL); in assay [2], 2.61 µM (≈ 8.2 µg/mL); in assay [3] it was 1.3 µM (≈ 4.1 µg/mL); in assay [4] it was 1.3 µM (≈ 4.1 µg/mL).

For `CC[C@H](C)[C@H](NC(=O)[C@H](Cc1ccccc1)NC(=O)[C@H](CCCN=C(N)N)NC(=O)[C@@H](NC(=O)[C@@H]1CCCN1C(=O)[C@H](CO)NC(=O)[C@H](CC(C)C)NC(=O)[C@H](C)NC(=O)[C@H](C)NC(=O)[C@H](CCCCN)NC(=O)[C@H](CC(N)=O)NC(=O)[C@H](CCSC)NC(=O)CNC(=O)[C@@H](NC(=O)[C@H](CCC(N)=O)NC(=O)[C@H](CC(=O)O)NC(=O)[C@H](C)NC(=O)[C@@H](N)CO)[C@@H](C)O)[C@@H](C)CC)C(=O)N[C@@H](CO)C(=O)N[C@@H](CCCCN)C(=O)N[C@@H](CO)C(=O)N[C@H](C(=O)O)C(C)C` [SADQTGMNKAALSPIRFISKSV], the MIC in assay [1] is not below 86.1 µM; in assay [2], more than 86.1 µM; in assay [3] it was not below 86.1 µM; in assay [4], more than 86.1 µM.

Regarding `CC[C@H](C)[C@H](N)C(=O)N[C@@H](CC(C)C)C(=O)N1CCC[C@H]1C(=O)N[C@@H](Cc1ccccc1)C(=O)N[C@H](C(=O)N[C@@H](C)C(=O)NCC(=O)N[C@H](C(=O)N[C@@H](C)C(=O)N[C@@H](C)C(=O)N[C@@H](CCC(=O)O)C(=O)N[C@@H](CCSC)C(=O)N[C@@H](CCSC)C(=O)N[C@@H](CCC(N)=O)C(=O)N[C@@H](Cc1cnc[nH]1)C(=O)N[C@H](C(=O)N[C@@H](Cc1ccc(O)cc1)C(=O)N[C@H]1CSSC[C@@H](C(=O)O)NC(=O)[C@H](CCCCN)NC(=O)[C@H](CCCCN)NC(=O)[C@H](CO)NC(=O)[C@H](C)NC(=O)[C@H](C)NC1=O)C(C)C)C(C)C)C(C)C` [ILPFVAGVAAEMMQHVYCAASKKC], the MIC in assay [1] is 2.26 µM (≈ 5.8 µg/mL); in assay [2], 2.26 µM (≈ 5.8 µg/mL); in assay [3], 4.52 µM (≈ 11.6 µg/mL); in assay [4], 4.52 µM (≈ 11.6 µg/mL).

Take `CC[C@H](C)[C@H](NC(=O)[C@H](CC(C)C)NC(=O)[C@H](CC(C)C)NC(=O)[C@H](CC(N)=O)NC(=O)[C@H](CCCCN)NC(=O)[C@@H](NC(=O)[C@@H](NC(=O)[C@H](C)NC(=O)[C@H](CC(C)C)NC(=O)[C@@H](NC(=O)CN)C(C)C)[C@@H](C)O)C(C)C)C(=O)NCC(=O)N[C@H](C(=O)NCC(=O)N[C@@H](CC(=O)O)C(=O)NCC(=O)N[C@@H](C)C(=O)N[C@@H](C)C(=O)N[C@@H](CCC(N)=O)C(=O)N[C@@H](CO)C(=O)N[C@H](C(=O)N[C@@H](CC(C)C)C(=O)N[C@@H](CCCCN)C(=O)N[C@H](C(=O)N[C@@H](CC(C)C)C(=O)N[C@@H](CO)C(=O)N[C@H]1CSSC[C@@H](C(=O)O)NC(=O)[C@H](CC(=O)O)NC(=O)[C@H](CC(N)=O)NC(=O)[C@H](CO)NC(=O)[C@H](CC(C)C)NC(=O)[C@H](CCCCN)NC1=O)[C@@H](C)O)C(C)C)[C@@H](C)O` [GVLATVKNLLIGTGDGAAQSVLKTLSCKLSNDC]: the MIC in assay [1] worked out at 3.4 µM (≈ 11.2 µg/mL); in assay [2], 3.4 µM (≈ 11.2 µg/mL); in assay [3], 13.6 µM (≈ 44.8 µg/mL); in assay [4], 6.81 µM (≈ 22.4 µg/mL).

For the compound `CC[C@H](C)[C@@H]1NC(=O)[C@H](CCCCN)NC(=O)[C@@H](NC(=O)[C@H](CCCCN)NC(=O)[C@H](CC(C)C)NC(=O)[C@H](CC(N)=O)NC(=O)[C@H](CC(=O)O)NC(=O)[C@H](CC(C)C)NC(=O)[C@H](CC(C)C)NC(=O)[C@H](CC(N)=O)NC(=O)CNC(=O)[C@H](C)NC(=O)[C@H](CCC(=O)O)NC(=O)[C@H](CC(N)=O)NC(=O)[C@H](CCCCN)NC(=O)[C@H](C)NC(=O)[C@@H](NC(=O)[C@H](CC(N)=O)NC(=O)[C@H](CCCCN)NC(=O)[C@H](C)NC(=O)[C@@H](NC(=O)[C@H](CC(=O)O)NC(=O)[C@H](CCSC)NC(=O)[C@H](Cc2ccccc2)NC(=O)CN)[C@@H](C)O)C(C)C)CSSC[C@@H](C(=O)O)NC(=O)[C@H](C)NC(=O)[C@H](CCCCN)NC(=O)[C@H]([C@@H](C)O)NC1=O` [GFMDTAKNVAKNEAGNLLDNLKCKITKAC], the MIC in assay [1] came to 2.02 µM (≈ 6.3 µg/mL); in assay [2] it was 4.05 µM (≈ 12.6 µg/mL); in assay [3] it was 4.05 µM (≈ 12.6 µg/mL); in assay [4] it was 2.02 µM (≈ 6.3 µg/mL).

Turning to `CC[C@H](C)[C@H](NC(=O)[C@H](CC(C)C)NC(=O)CN)C(=O)N[C@@H](CC(=O)O)C(=O)N[C@H](C(=O)N[C@H](C(=O)N[C@@H](CCCCN)C(=O)N[C@@H](CC(N)=O)C(=O)N[C@@H](CCSC)C(=O)N[C@@H](C)C(=O)N[C@@H](CC(C)C)C(=O)N[C@@H](CC(N)=O)C(=O)N[C@@H](C)C(=O)N[C@@H](C)C(=O)N[C@@H](CCCCN)C(=O)N[C@@H](CO)C(=O)N[C@@H](C)C(=O)NCC(=O)N[C@H](C(=O)N[C@@H](CO)C(=O)N[C@H](C(=O)N[C@@H](CC(C)C)C(=O)N[C@@H](CC(N)=O)C(=O)N[C@H](C(=O)N[C@@H](CC(C)C)C(=O)N[C@@H](CO)C(=O)N[C@H]1CSSC[C@@H](C(=O)O)NC(=O)[C@H]([C@@H](C)O)NC(=O)[C@H](CCCCN)NC(=O)[C@H](CO)NC(=O)[C@H](CC(C)C)NC(=O)[C@H](CCCCN)NC1=O)[C@@H](C)O)C(C)C)C(C)C)[C@@H](C)CC)[C@@H](C)O` [GLIDTIKNMALNAAKSAGVSVLNTLSCKLSKTC], the MIC in assay [1] was 3.06 µM (≈ 10.3 µg/mL); in assay [2] it was 6.12 µM (≈ 20.6 µg/mL); in assay [3], 12.2 µM (≈ 41.2 µg/mL); in assay [4], 6.12 µM (≈ 20.6 µg/mL).

Turning to `CC(C)C[C@H](NC(=O)[C@H](CC(C)C)NC(=O)[C@H](CCCCN)NC(=O)[C@H](CCCCN)NC(=O)[C@H](Cc1c[nH]c2ccccc12)NC(=O)[C@H](CC(C)C)NC(=O)[C@H](CCCCN)NC(=O)[C@H](CCCCN)NC(=O)[C@H](CC(C)C)NC(=O)[C@@H](N)CCCCN)C(=O)N[C@@H](CCCCN)C(N)=O` [KLKKLWKKLLK], the minimal inhibitory concentration (MIC) in assay [5] was 8.77 µM and 17.5 µM.

Take `CC[C@H](C)[C@H](NC(=O)[C@H](CC(C)C)NC(=O)[C@H](CC(C)C)NC(=O)[C@H](CC(=O)O)NC(=O)[C@H](CCCCN)NC(=O)[C@@H](NC(=O)[C@@H](NC(=O)CNC(=O)[C@H](CC(C)C)NC(=O)[C@@H](NC(=O)[C@@H](N)CO)C(C)C)[C@@H](C)O)C(C)C)C(=O)NCC(=O)N[C@@H](C)C(=O)NCC(=O)N[C@@H](CCCCN)C(=O)N[C@@H](CO)C(=O)N[C@@H](C)C(=O)N[C@@H](C)C(=O)N[C@@H](CCC(N)=O)C(=O)N[C@@H](CO)C(=O)N[C@H](C(=O)N[C@@H](CC(C)C)C(=O)N[C@H](C(=O)N[C@@H](C)C(=O)N[C@@H](CC(N)=O)C(=O)N[C@@H](CO)C(=O)N[C@H]1CSSC[C@@H](C(=O)O)NC(=O)[C@H](CO)NC(=O)[C@H](CC(N)=O)NC(=O)[C@H](CO)NC(=O)[C@H](CC(C)C)NC(=O)[C@H](CCCCN)NC1=O)[C@@H](C)O)C(C)C` [SVLGTVKDLLIGAGKSAAQSVLTANSCKLSNSC]: the minimal inhibitory concentration (MIC) in assay [1] is 3.65 µM (≈ 11.8 µg/mL); in assay [2] it was 3.65 µM (≈ 11.8 µg/mL); in assay [3] it was 3.65 µM (≈ 11.8 µg/mL); in assay [4], 1.82 µM (≈ 5.9 µg/mL).

These data come from DBAASP.
